Measured values taken from patent EP4603105A1, “PHARMACEUTICAL COMPOSITION CONTAINING CYCLIC COMPOUND HAVING SELECTIVE KRAS INHIBITORY EFFECT AGAINST HRAS AND NRAS” (CHUGAI SEIYAKU KABUSHIKI KAISHA, priority 2022, dated 2024).
Where a SMILES comes first, the peptide text is derived from it. Bridges are numbered along the chain shown (N, C = ends). [ ]: non-standard residue; d: D form. The star is where a group is joined. hPhe(3-Cl-4-CF3) = N[C@@H](CCc1ccc(C(F)(F)F)c(Cl)c1)C(=O)O; NPrPhe(4-CF3) = CCCN[C@@H](Cc1ccc(C(F)(F)F)cc1)C(=O)O; NEtPhe(4-Me) = CCN[C@@H](Cc1ccc(C)cc1)C(=O)O; NMePhe(4-Me) = CN[C@@H](Cc1ccc(C)cc1)C(=O)O; NMeGly(cPent) = CN[C@H](C(=O)O)C1CCCC1; Pro(4,4-F2) = O=C(O)[C@@H]1CC(F)(F)CN1; Pro(4,4-Me2) = CC1(C)CN[C@H](C(=O)O)C1; Hyp = O=C(O)[C@@H]1C[C@@H](O)CN1; NMeD = CN[C@@H](CC(=O)O)C(=O)O; NMeL = CN[C@@H](CC(C)C)C(=O)O; Morpholide = C1CN(*)CCO1; NMeA = CN[C@@H](C)C(=O)O; NMeAib = CNC(C)(C)C(=O)O; Nle = CCCC[C@H](N)C(=O)O; Piperidide = C1CCN(*)CC1; Ac5c = NC1(C(=O)O)CCCC1; Aze = O=C(O)[C@@H]1CCN1; Abu = CC[C@H](N)C(=O)O; NPrGly = CCCNCC(=O)O; Sar = CNCC(=O)O

Legend:
HRAS wild-type protein = HRAS wild-type protein (Homo sapiens, UniProt P01112); assay: Binding to HRAS by surface plasmon resonance (SPR), KD and KD ratio to KRAS
Summary of the method: (§1)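 Captured GDP-RAS (~100–300 RU) was exposed to increasing compound concentrations, 75 s per step, in running buffer with 10 µM GDP, 10 mM MgCl2 and 4% DMSO at pH 7.4.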

[1] = target: GDP-bound NRAS wild-type protein (Homo sapiens, UniProt P01111); assay: Binding to NRAS by surface plasmon resonance (SPR), KD and KD ratio to KRAS
Summary of the method: as §1

[2] = tested on: human lung cancer strain NCI-H441; format: cell-based
Summary of the method: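 Step one: dispense the test compound in serial DMSO dilutions. Step three: add the reagent and measure […].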

[3] = ratio of the KD value with respect to HRAS wild-type protein to the KD value with respect to KRAS
[4] = ratio of the KD value with respect to GDP-bound NRAS wild-type protein to the KD value with respect to KRAS
[5] = ratio of KD for HRAS wild-type protein to KD for KRAS
[6] = ratio of KD for GDP-bound NRAS wild-type protein to KD for KRAS

Chain of HRAS wild-type protein (P01112 whole entry): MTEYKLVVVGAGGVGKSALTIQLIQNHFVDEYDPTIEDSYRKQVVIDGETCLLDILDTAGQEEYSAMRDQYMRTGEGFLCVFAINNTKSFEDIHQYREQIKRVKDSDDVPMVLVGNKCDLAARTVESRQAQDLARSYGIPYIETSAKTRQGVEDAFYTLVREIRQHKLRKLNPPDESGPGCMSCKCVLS
Chain of GDP-bound NRAS wild-type protein (P01111 whole entry): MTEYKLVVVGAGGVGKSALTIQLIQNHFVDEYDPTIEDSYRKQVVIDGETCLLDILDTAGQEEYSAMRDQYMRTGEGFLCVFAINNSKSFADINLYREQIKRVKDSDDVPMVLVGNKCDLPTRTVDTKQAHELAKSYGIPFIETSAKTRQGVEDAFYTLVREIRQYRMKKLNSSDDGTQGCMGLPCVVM

Compound	HRAS /KRAS (HRAS wild-type protein; [3])	NRAS /KRAS [1, 4]	IC50 [2]	HRAS /KRAS (HRAS wild-type protein; [5])	NRAS /KRAS [1, 6]
CCCN1C(=O)[C@H](C2CCCC2)N(C)C(=O)C2(CCC2)NC(=O)[C@@H]2C[C@@H](OCC)CN2C(=O)[C@H](CCc2cc(F)c(C(F)(F)F)c(F)c2)NC(=O)CN(C)C(=O)[C@H](Cc2ccc(C(F)(F)F)cc2)N2CCCCC[C@@H](C2=O)N(C)C(=O)CN(C)C(=O)[C@H]([C@@H](C)CC)NC(=O)[C@H](CC(C)C)N(C)C(=O)C[C@H]1C(=O)N1CCOCC1 [PP0639]	B (a compound having 3 or more and less than 10 is denoted as B)	B (a compound having 3 or more and less than 10 is denoted as B)	631 nM		
CCO[C@@H]1C[C@H]2C(=O)NC3(CCC3)C(=O)N(C)[C@@H](C3CCCC3)C(=O)N(C)[C@H](C(=O)N(C)C)CC(=O)N(C)[C@@H](Cc3cccc(Cl)c3)C(=O)N[C@@H]([C@@H](C)CC)C(=O)N(C)CC(=O)N(C)[C@H]3C/C=C\CCN(C3=O)[C@@H](Cc3ccc(C(F)(F)F)cc3)C(=O)N(C)CC(=O)N[C@@H](CCc3cc(F)c(C(F)(F)F)c(F)c3)C(=O)N2C1 [PP1127]			11.9 nM	A (a compound having 10 or more and less than 20 is denoted as A)	AA (a compound having 20 or more is denoted as AA)
CCO[C@@H]1C[C@H]2C(=O)NC3(CC(C)(C)C3)C(=O)N(C)[C@@H](C(CC)CC)C(=O)N(C)[C@H](C(=O)N(C)C)CC(=O)N(C)[C@@H](CC)C(=O)N[C@@H]([C@@H](C)CC)C(=O)N(C)CC(=O)N(C)[C@H]3C/C=C\CCN(C3=O)[C@@H](Cc3ccc(C)cc3)C(=O)N(C)CC(=O)N[C@@H](CCc3ccc(Cl)c(Cl)c3)C(=O)N2C1 [PP2188]	A (a compound having 10 or more and less than 20 is denoted as A)	AA (a compound having 20 or more is denoted as AA)	26.7 nM		
CCO[C@@H]1C[C@H]2C(=O)NC3(CCCC3)C(=O)N(C)[C@@H](C3CCCC3)C(=O)N(C)[C@H](C(=O)N3CCOCC3)CC(=O)N(C)[C@@H](CC(C)C)C(=O)N[C@@H]([C@@H](C)CC)C(=O)N(C)[C@@H](C)C(=O)N3CC[C@H]3C(=O)N(CC)[C@@H](Cc3ccc(C)cc3)C(=O)N(C)CC(=O)N[C@@H](CCc3ccc(C(F)(F)F)c(Cl)c3)C(=O)N2C1 [PP0014] ([NMeL]I[NMeA][Aze][NEtPhe(4-Me)][Sar][hPhe(3-Cl-4-CF3)][Hyp](Et)[Ac5c][NMeGly(cPent)][NMeD]-Morpholide; lactam N-11)			2 nM	C (A compound having a KD ratio of 0.1 or more and less than 3 is denoted as C)	C (A compound having a KD ratio of 0.1 or more and less than 3 is denoted as C)
CC[C@H](C)[C@@H]1NC(=O)[C@H](C)N(C)C(=O)C[C@@H](C(=O)N(C)C)N(C)C(=O)[C@H](C2CCCC2)N(C)C(=O)C2(CCC2)NC(=O)[C@@H]2CCCN2C(=O)[C@H](CCc2cc(F)c(C(F)(F)F)c(F)c2)NC(=O)CN(C)C(=O)[C@H](Cc2ccc(C(F)(F)F)cc2)N2CCCC[C@@H](C2=O)N(C)C(=O)CN(C)C1=O [PP0581]	B (a compound having 3 or more and less than 10 is denoted as B)	C (A compound having a KD ratio of 0.1 or more and less than 3 is denoted as C)	8 nM		
CCCN1CC(=O)NC2(CCCC2)C(=O)N(C)[C@@H](C2CCCC2)C(=O)N(C)[C@H](C(=O)N2CCOCC2)CC(=O)N(C)[C@@H](CC(C)C)C(=O)N[C@@H]([C@@H](C)CC)C(=O)N(C)[C@@H](C)C(=O)N2CC[C@H]2C(=O)N(CCC)[C@@H](Cc2ccc(C(F)(F)F)cc2)C(=O)N(C)CC(=O)N[C@@H](CCc2ccc(C(F)(F)F)c(Cl)c2)C1=O [PP0288] ([NMeL]I[NMeA][Aze][NPrPhe(4-CF3)][Sar][hPhe(3-Cl-4-CF3)][NPrGly][Ac5c][NMeGly(cPent)][NMeD]-Morpholide; lactam N-11)			14.3 nM	B (a compound having 3 or more and less than 10 is denoted as B)	C (A compound having a KD ratio of 0.1 or more and less than 3 is denoted as C)
CCCN1C(=O)CN(C)C(=O)CNC(=O)[C@H]([C@@H](C)CC)NC(=O)[C@H](CC(C)C)N(C)C(=O)C[C@@H](C(=O)N2CCOCC2)NC(=O)[C@H](C2CCCC2)N(C)C(=O)C2(CCCC2)NC(=O)[C@@H]2CC(F)(F)CN2C(=O)[C@H](CCc2ccc(C(F)(F)F)c(Cl)c2)NC(=O)CN(C)C(=O)[C@@H]1Cc1ccc(C(F)(F)F)cc1 [PP0327] ([NMeL]IG[Sar][NPrPhe(4-CF3)][Sar][hPhe(3-Cl-4-CF3)][Pro(4,4-F2)][Ac5c][NMeGly(cPent)]D-Morpholide; lactam N-11)			162 nM	B (a compound having 3 or more and less than 10 is denoted as B)	B (a compound having 3 or more and less than 10 is denoted as B)
CCCN1C(=O)[C@@H]2CCN2C(=O)[C@H](C)N(C)C(=O)[C@H](CC)NC(=O)[C@H](CC(C)C)N(C)C(=O)C[C@@H](C(=O)N2CCOCC2)N(C)C(=O)[C@H](C2CCCC2)N(C)C(=O)C2(CCCC2)NC(=O)[C@@H]2CCCN2C(=O)[C@H](CCc2ccc(C(F)(F)F)c(Cl)c2)NC(=O)CN(C)C(=O)[C@@H]1Cc1ccc(C(F)(F)F)cc1 [PP0269] ([NMeL][Abu][NMeA][Aze][NPrPhe(4-CF3)][Sar][hPhe(3-Cl-4-CF3)]P[Ac5c][NMeGly(cPent)][NMeD]-Morpholide; lactam N-11)			34.7 nM	B (a compound having 3 or more and less than 10 is denoted as B)	C (A compound having a KD ratio of 0.1 or more and less than 3 is denoted as C)
CCCC[C@@H]1NC(=O)[C@H](CCc2ccc(C(F)(F)F)c(Cl)c2)NC(=O)CN(C)C(=O)[C@H](Cc2ccc(C)cc2)N(C)C(=O)[C@@H]2CCN2C(=O)[C@H](C)N(C)C(=O)[C@H]([C@@H](C)CC)NC(=O)[C@H](CC(C)C)N(C)C(=O)C[C@@H](C(=O)N2CCCCC2)N(C)C(=O)[C@H](CC(C)C)NC(=O)C(C)(C)N(C)C1=O [PP0047] ([NMeL]I[NMeA][Aze][NMePhe(4-Me)][Sar][hPhe(3-Cl-4-CF3)][Nle][NMeAib]L[NMeD]-Piperidide; lactam N-11)			229 nM	C (A compound having a KD ratio of 0.1 or more and less than 3 is denoted as C)	C (A compound having a KD ratio of 0.1 or more and less than 3 is denoted as C)
CCCN1C(=O)CN(C)C(=O)CN(C)C(=O)[C@H]([C@@H](C)CC)NC(=O)[C@H](CC(C)C)N(C)C(=O)C[C@@H](C(=O)N2CCOCC2)N(C)C(=O)[C@H](C2CCCC2)N(C)C(=O)C2(CCCC2)NC(=O)[C@@H]2CC(C)(C)CN2C(=O)[C@H](CCc2ccc(C(F)(F)F)c(Cl)c2)NC(=O)CN(C)C(=O)[C@@H]1Cc1ccc(C(F)(F)F)cc1 [PP0446] ([NMeL]I[Sar][Sar][NPrPhe(4-CF3)][Sar][hPhe(3-Cl-4-CF3)][Pro(4,4-Me2)][Ac5c][NMeGly(cPent)][NMeD]-Morpholide; lactam N-11)	C (A compound having a KD ratio of 0.1 or more and less than 3 is denoted as C)	B (a compound having 3 or more and less than 10 is denoted as B)	1.6 nM		
